Assay results from PMC10700596 (Nature Communications, 2023).
Values joined by “and” are separate entries in the source; they are usually repeats but may differ in a detail not shown here. Equal values may be shown once. “Also recorded” adds a separate entry of the source.

Key:
ULK2 = ULK2 (Homo sapiens, UniProt Q8IYT8); test: biochemical; assay type: binding; conditions: 10000 nM; read-out: Percent Control
Excerpt: (§1) . […] This panel includes several adverse drug reaction receptors such as the serotonin receptor 5HT2b, M1 and M2 muscarinic receptors and adrenergic receptors. […]. page 7:
(§2) Supplementary Figure 7: Non-GPCR off-target screening for 74. a)-e) Dose-response curves of 74 at […]
(§3) proliferator-activated receptor gamma (PPARγ, Eurofins item G124). Data in a)-e) and g)-i) represent two technical replicates. Source data are provided as a Source Data file.
(§4) (1 picture or pasted object on this page, not shown here)

AKT1 = AKT1 (Homo sapiens, UniProt P31749); test: biochemical; assay type: binding; conditions: 10000 nM; read-out: Percent Control
Excerpt: as §1, §2, §3, §4

CDK11 = CDK11 (Homo sapiens, UniProt Q9BWU1); test: biochemical; assay type: binding; conditions: 10000 nM; read-out: Percent Control
Excerpt: as §1, §2, §3, §4

SRPK3 = SRPK3 (Homo sapiens, UniProt Q9UPE1); test: biochemical; assay type: binding; conditions: 10000 nM; read-out: Percent Control
Excerpt: as §1, §2, §3, §4

p38-alpha = p38-alpha (Homo sapiens, UniProt Q16539); test: biochemical; assay type: binding; conditions: 10000 nM; read-out: Percent Control
Excerpt: as §1, §2, §3, §4

JNK1 = JNK1 (Homo sapiens, UniProt P45983); test: biochemical; assay type: binding; conditions: 10000 nM; read-out: Percent Control
Excerpt: as §1, §2, §3, §4

CDK7 = CDK7 (Homo sapiens, UniProt P50613); test: biochemical; assay type: binding; conditions: 10000 nM; read-out: Percent Control
Excerpt: as §1, §2, §3, §4

PIK3CG = PIK3CG (Homo sapiens, UniProt P48736); test: biochemical; assay type: binding; conditions: 10000 nM; read-out: Percent Control
Excerpt: as §1, §2, §3, §4

TRKA = TRKA (Homo sapiens, UniProt P04629); test: biochemical; assay type: binding; conditions: 10000 nM; read-out: Percent Control
Excerpt: as §1, §2, §3, §4

ERK1 = ERK1 (Homo sapiens, UniProt P27361); test: biochemical; assay type: binding; conditions: 10000 nM; read-out: Percent Control
Excerpt: as §1, §2, §3, §4

FGFR2 = FGFR2 (Homo sapiens, UniProt P21802); test: biochemical; assay type: binding; conditions: 10000 nM; read-out: Percent Control
Excerpt: as §1, §2, §3, §4

PIK3CA = PIK3CA (Homo sapiens, UniProt P42336); test: biochemical; assay type: binding; conditions: 10000 nM; read-out: Percent Control
Excerpt: as §1, §2, §3, §4

DCAMKL1 = DCAMKL1 (Homo sapiens, UniProt O15075); test: biochemical; assay type: binding; conditions: 10000 nM; read-out: Percent Control
Excerpt: as §1, §2, §3, §4

ZAP70 = ZAP70 (Homo sapiens, UniProt P43403); test: biochemical; assay type: binding; conditions: 10000 nM; read-out: Percent Control
Excerpt: as §1, §2, §3, §4

SRC = SRC (Homo sapiens, UniProt P12931); test: biochemical; assay type: binding; conditions: 10000 nM; read-out: Percent Control
Excerpt: as §1, §2, §3, §4

GSK3B = GSK3B (Homo sapiens, UniProt P49841); test: biochemical; assay type: binding; conditions: 10000 nM; read-out: Percent Control
Excerpt: as §1, §2, §3, §4

MET = MET (Homo sapiens, UniProt P08581); test: biochemical; assay type: binding; conditions: 10000 nM; read-out: Percent Control
Excerpt: as §1, §2, §3, §4

IKK-alpha = IKK-alpha (Homo sapiens, UniProt O15111); test: biochemical; assay type: binding; conditions: 10000 nM; read-out: Percent Control
Excerpt: as §1, §2, §3, §4

INSR = INSR (Homo sapiens, UniProt P06213); test: biochemical; assay type: binding; conditions: 10000 nM; read-out: Percent Control
Excerpt: as §1, §2, §3, §4

BTK = BTK (Homo sapiens, UniProt Q06187); test: biochemical; assay type: binding; conditions: 10000 nM; read-out: Percent Control
Excerpt: as §1, §2, §3, §4

EGFR(L858R) = EGFR(L858R) (Homo sapiens, UniProt P00533, L858R); test: biochemical; assay type: binding; conditions: 10000 nM; read-out: Percent Control
Excerpt: as §1, §2, §3, §4

BRAF = BRAF (Homo sapiens, UniProt P15056); test: biochemical; assay type: binding; conditions: 10000 nM; read-out: Percent Control
Excerpt: as §1, §2, §3, §4

PIM1 = PIM1 (Homo sapiens, UniProt P11309); test: biochemical; assay type: binding; conditions: 10000 nM; read-out: Percent Control
Excerpt: as §1, §2, §3, §4

CHEK1 = CHEK1 (Homo sapiens, UniProt O14757); test: biochemical; assay type: binding; conditions: 10000 nM; read-out: Percent Control
Excerpt: as §1, §2, §3, §4

FAK = FAK (Homo sapiens, UniProt Q05397); test: biochemical; assay type: binding; conditions: 10000 nM; read-out: Percent Control
Excerpt: as §1, §2, §3, §4

DYRK1B = DYRK1B (Homo sapiens, UniProt Q9Y463); test: biochemical; assay type: binding; conditions: 10000 nM; read-out: Percent Control
Excerpt: as §1, §2, §3, §4

[1] = target: T1, Thromboxane A2 (TP) receptor (Homo sapiens, UniProt P21731); test: Functional cAMP production assay, TP receptor; assay type: cell-based
T1 sequence (P21731 1-343): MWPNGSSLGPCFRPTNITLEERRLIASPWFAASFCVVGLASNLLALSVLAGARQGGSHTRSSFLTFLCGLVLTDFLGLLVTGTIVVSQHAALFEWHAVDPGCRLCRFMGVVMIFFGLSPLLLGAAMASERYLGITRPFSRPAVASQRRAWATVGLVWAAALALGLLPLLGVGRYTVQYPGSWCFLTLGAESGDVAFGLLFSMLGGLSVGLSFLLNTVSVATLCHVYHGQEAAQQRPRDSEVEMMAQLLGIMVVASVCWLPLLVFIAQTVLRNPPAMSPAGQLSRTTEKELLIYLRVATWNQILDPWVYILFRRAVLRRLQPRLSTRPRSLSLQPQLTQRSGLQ

[2] = target: T2, RSK2(Kin.Dom.1-N-terminal) (Homo sapiens, UniProt P51812); test: KINOMEscan; assay type: binding
T2 construct: RSK2(Kin.Dom.1-N-terminal); purchased Eurofins DiscoverX KINOMEscan (scanEDGE, 97 kinases)

mice = assay type: in vivo

T2 sequence (P51812 1-397 limits assumed): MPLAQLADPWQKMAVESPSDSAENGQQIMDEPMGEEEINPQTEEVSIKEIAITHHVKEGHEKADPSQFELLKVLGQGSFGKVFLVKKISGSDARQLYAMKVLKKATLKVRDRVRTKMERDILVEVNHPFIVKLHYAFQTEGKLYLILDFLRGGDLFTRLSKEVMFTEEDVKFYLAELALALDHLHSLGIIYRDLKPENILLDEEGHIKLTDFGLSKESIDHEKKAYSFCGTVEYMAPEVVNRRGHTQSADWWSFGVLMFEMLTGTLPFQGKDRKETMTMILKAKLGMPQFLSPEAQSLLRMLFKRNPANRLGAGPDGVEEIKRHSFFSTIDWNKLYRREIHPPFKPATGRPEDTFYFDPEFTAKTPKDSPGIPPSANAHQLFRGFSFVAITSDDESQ
CDK11, sequence (Q9BWU1 whole entry): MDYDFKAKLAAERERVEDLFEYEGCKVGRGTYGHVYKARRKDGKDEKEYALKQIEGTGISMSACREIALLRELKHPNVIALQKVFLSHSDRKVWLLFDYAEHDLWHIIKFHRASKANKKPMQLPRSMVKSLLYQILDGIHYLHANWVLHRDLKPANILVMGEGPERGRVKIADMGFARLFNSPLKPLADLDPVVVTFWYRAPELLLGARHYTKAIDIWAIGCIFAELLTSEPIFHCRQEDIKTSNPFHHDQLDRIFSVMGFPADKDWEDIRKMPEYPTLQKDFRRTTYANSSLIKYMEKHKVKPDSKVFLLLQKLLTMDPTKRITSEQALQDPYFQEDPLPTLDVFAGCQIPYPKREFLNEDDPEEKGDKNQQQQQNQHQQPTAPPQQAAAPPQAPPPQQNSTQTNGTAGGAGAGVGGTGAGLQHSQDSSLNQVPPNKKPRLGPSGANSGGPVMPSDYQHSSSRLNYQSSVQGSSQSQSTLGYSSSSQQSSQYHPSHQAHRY
AKT1, sequence (P31749 whole entry): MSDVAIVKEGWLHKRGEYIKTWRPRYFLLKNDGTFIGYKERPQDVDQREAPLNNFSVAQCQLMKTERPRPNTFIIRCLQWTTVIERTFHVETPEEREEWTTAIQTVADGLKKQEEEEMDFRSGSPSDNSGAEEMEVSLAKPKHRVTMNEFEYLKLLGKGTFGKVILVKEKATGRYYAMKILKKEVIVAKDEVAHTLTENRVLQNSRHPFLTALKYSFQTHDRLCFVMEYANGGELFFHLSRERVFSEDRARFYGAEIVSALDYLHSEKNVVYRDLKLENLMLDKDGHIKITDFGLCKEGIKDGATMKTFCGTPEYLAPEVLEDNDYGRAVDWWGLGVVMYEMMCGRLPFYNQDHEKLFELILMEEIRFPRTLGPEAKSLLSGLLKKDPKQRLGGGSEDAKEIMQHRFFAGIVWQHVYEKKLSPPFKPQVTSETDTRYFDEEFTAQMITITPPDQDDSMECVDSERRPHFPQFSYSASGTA
PIM1, sequence (P11309 whole entry): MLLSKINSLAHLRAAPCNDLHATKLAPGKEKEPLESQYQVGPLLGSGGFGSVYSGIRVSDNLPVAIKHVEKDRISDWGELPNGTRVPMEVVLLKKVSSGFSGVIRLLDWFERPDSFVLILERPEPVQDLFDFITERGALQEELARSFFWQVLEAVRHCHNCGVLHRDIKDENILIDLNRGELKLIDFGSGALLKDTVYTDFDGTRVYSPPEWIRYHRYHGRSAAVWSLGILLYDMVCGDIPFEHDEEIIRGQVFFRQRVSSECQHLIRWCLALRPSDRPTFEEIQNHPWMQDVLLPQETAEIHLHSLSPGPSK
ULK2, sequence (Q8IYT8 whole entry): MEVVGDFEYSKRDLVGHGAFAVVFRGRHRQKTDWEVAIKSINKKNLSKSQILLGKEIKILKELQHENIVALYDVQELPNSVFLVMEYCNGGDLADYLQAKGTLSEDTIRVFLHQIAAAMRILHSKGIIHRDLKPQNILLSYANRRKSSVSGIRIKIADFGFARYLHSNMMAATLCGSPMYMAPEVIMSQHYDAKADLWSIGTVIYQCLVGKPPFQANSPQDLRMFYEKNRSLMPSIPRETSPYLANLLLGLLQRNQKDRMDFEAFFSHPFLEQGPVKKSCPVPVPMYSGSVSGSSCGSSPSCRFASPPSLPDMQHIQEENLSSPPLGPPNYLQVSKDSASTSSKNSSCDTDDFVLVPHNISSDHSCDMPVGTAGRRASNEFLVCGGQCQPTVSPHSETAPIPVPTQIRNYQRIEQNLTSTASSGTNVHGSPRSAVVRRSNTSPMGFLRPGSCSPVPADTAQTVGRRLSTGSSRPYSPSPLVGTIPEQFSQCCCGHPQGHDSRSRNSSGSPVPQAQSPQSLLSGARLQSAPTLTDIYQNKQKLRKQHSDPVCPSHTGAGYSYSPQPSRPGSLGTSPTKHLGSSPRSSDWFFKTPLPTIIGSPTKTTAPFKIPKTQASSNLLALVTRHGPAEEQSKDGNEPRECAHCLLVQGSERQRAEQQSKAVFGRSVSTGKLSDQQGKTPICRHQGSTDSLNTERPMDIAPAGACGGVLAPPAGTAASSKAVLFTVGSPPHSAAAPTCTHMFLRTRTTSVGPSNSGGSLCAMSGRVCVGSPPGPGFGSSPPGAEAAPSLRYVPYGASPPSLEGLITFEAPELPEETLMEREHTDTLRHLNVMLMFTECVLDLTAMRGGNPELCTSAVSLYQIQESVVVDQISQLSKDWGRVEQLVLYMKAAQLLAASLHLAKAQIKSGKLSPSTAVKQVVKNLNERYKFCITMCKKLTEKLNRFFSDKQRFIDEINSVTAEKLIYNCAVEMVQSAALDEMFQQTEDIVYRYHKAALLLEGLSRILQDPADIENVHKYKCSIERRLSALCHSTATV
DYRK1B, sequence (Q9Y463 whole entry): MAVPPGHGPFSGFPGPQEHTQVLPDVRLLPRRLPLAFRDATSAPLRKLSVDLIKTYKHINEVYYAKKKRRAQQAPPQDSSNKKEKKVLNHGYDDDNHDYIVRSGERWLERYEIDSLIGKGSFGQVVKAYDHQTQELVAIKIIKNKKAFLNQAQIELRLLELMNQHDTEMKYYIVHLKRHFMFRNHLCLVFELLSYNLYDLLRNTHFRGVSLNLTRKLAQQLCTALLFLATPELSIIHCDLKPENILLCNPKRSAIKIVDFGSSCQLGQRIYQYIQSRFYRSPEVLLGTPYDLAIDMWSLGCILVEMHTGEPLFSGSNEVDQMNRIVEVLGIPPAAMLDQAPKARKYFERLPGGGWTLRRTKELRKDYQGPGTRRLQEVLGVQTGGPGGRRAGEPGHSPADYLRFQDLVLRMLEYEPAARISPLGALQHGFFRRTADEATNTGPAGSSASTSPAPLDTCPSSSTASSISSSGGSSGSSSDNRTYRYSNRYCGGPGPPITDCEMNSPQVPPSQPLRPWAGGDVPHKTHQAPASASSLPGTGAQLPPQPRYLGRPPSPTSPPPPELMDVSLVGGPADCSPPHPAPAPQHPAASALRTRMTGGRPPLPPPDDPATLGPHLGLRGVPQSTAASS
CDK7, sequence (P50613 whole entry): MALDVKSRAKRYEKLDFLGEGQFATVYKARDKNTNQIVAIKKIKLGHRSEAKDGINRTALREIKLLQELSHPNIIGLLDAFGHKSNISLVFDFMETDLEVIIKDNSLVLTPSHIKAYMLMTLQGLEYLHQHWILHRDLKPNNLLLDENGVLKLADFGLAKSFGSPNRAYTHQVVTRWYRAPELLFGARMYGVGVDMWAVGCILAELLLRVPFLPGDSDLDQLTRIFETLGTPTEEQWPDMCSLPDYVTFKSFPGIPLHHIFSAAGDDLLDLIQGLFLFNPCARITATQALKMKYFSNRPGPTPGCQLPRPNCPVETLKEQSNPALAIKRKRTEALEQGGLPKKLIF
PIK3CG, sequence (P48736 whole entry): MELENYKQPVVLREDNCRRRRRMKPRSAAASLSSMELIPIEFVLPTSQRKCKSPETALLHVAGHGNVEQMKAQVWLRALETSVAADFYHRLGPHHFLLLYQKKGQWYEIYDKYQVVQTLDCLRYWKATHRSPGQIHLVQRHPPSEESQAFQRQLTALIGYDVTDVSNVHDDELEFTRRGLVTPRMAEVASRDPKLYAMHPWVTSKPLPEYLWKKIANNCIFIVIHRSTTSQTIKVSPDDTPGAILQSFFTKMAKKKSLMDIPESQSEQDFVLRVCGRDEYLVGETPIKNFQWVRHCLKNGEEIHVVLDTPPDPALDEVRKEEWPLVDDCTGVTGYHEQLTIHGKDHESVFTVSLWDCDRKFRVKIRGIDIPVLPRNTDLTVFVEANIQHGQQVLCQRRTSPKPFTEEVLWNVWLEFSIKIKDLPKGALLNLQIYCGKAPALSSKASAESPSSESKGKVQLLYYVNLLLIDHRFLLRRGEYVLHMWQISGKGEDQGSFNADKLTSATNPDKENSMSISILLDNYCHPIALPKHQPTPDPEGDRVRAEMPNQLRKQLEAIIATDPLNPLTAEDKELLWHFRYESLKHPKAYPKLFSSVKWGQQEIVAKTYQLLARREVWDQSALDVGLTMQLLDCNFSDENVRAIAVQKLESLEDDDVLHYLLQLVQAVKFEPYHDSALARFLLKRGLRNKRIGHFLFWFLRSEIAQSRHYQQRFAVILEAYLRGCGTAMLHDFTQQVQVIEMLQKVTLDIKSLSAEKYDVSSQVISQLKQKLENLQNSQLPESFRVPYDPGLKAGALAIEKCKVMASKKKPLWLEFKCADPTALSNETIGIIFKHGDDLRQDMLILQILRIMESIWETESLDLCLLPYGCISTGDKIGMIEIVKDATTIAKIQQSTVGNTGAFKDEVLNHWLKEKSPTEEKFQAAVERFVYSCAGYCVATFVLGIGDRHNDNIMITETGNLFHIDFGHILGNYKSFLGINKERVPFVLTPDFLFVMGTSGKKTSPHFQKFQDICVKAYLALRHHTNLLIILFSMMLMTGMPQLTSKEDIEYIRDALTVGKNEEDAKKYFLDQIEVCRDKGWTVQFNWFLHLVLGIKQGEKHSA

O=C(O)C1CCC2(CC1)CC(Nc1ncnc3[nH]c4c(F)cccc4c13)C2 (stereo not drawn) [Compound 74, OC(=O)C1CCC2(CC(C2)NC=3N=CN=C4NC=5C(F)=CC=CC5C34)CC1]
remaining activity at 10 µM (ULK2): 54% | remaining activity at 10 µM (AKT1): 100% | remaining activity at 10 µM (CDK11): 46% | remaining activity at 10 µM (SRPK3): 67% | remaining activity at 10 µM (p38-alpha): 87% | remaining activity at 10 µM (JNK1): 35% | remaining activity at 10 µM (CDK7): 62% | remaining activity at 10 µM (PIK3CG): 3.5% | remaining activity at 10 µM (TRKA): 11% | remaining activity at 10 µM (ERK1): 100% | remaining activity at 10 µM (FGFR2): 71% | remaining activity at 10 µM (PIK3CA): 64% | remaining activity at 10 µM (DCAMKL1): 78% | remaining activity at 10 µM (ZAP70): 75% | remaining activity at 10 µM (SRC): 88% | remaining activity at 10 µM (GSK3B): 82% | remaining activity at 10 µM (MET): 100% | remaining activity at 10 µM (IKK-alpha): 42% | remaining activity at 10 µM (INSR): 90% | remaining activity at 10 µM (BTK): 67% | remaining activity at 10 µM (EGFR(L858R)): 84% | remaining activity at 10 µM (BRAF): 86% | remaining activity at 10 µM (PIM1): 72% | remaining activity at 10 µM (CHEK1): 100% | remaining activity at 10 µM (FAK): 97% | remaining activity at 10 µM (DYRK1B): 74% | off-target activity at thromboxane A2 receptor [1]: no off-target activities | remaining binding at 10 µM ([2]; 10000 nM, read-out: Percent Control): 0.25% | Signal (qPCR) ([2]; RSK2, [Compound] 0.0001 nM): 4.94e-6 and 4.75e-6 | Signal (qPCR) ([2]; RSK2, [Compound] 0.01 nM): 3.91e-6 and 4.73e-6 | Signal (qPCR) ([2]; RSK2, [Compound] 0.169 nM): 4.25e-6 and 3.92e-6 | Signal (qPCR) ([2]; RSK2, [Compound] 0.508 nM): 4.17e-6 and 4.75e-6 | Signal (qPCR) ([2]; RSK2, [Compound] 1.52 nM): 4.57e-6 and 4.32e-6 | Signal (qPCR) ([2]; RSK2, [Compound] 4.57 nM): 4.65e-6 and 4.1e-6 | Signal (qPCR) ([2]; RSK2, [Compound] 13.7 nM): 3.9e-6 and 3.53e-6 | Signal (qPCR) ([2]; RSK2, [Compound] 41.2 nM): 3.36e-6 and 3.55e-6 | Signal (qPCR) ([2]; RSK2, [Compound] 123 nM): 3.09e-6 and 2.73e-6 | Signal (qPCR) ([2]; RSK2, [Compound] 370 nM): 2.17e-6 and 2e-6 | Signal (qPCR) ([2]; RSK2, [Compound] 3330 nM): 5.93e-7 and 5.31e-7 | Signal (qPCR) ([2]; RSK2, [Compound] 10000 nM): 2.67e-7 and 3.25e-7

O=C([O-])C1CCC2(CC1)CC(Nc1ncnc3[nH]c4c(F)cccc4c13)C2.[Na+] (stereo not drawn) [Compound 77, [Na+].[O-]C(=O)C1CCC2(CC(C2)NC=3N=CN=C4NC=5C(F)=CC=CC5C34)CC1]
effect on CFA-induced paw edema (mice; 30 mg/kg i.p. daily on four consecutive days): significantly reduced the progression of CFA-induced inflammation; also recorded: significantly slowed the development of paw edema | reduction of paw thickness versus the control group (mice; 30 mg/kg i.p. daily on four consecutive days after CFA): up to 20% | Thickness D1 %BL (mice; 77 30 mg/kg, CFA day 1, 1 h after dosing, % of CFA D1 thickness, individual mice 6-10 and Average, 30 mg/kg): 92.0% and 93.2% and 87.6% and 98.7% and 95.8% | Thickness D1 (mice; 77 30 mg/kg, CFA day 1, 1 h after dosing, individual mice 6-10 and Average, 30 mg/kg): 3.58 and 3.3 and 3.4 and 3.89 and 3.68 | Thickness D2 (1h) %BL (mice; 77 30 mg/kg, CFA day 2, 1 h, % of CFA D1 thickness, individual mice 6-10 and Average, 30 mg/kg): 115.7% and 120.9% and 116.5% and 109.1% and 119.8% | Thickness D2 (1h) (mice; 77 30 mg/kg, CFA day 2, 1 h, individual mice 6-10 and Average, 30 mg/kg): 4.5 and 4.28 and 4.52 and 4.3 and 4.6 | Thickness BL D2 (mice; 77 30 mg/kg, CFA day 2 before that day's dose (vehicle head: CFA D2), individual mice 6-10 and Average, 30 mg/kg): 4.81 and 4.39 and 4.69 and 4.16 and 4.59 | Thickness BL D2 % (mice; 77 30 mg/kg, CFA day 2 before that day's dose, % of CFA D1 thickness, individual mice 6-10 and Average, 30 mg/kg): 123.7% and 124.0% and 120.9% and 105.6% and 119.5% | Thickness D3 (1h) % (mice; 77 30 mg/kg, CFA day 3, 1 h, % of CFA D1 thickness, individual mice 6-10 and Average, 30 mg/kg): 128.5% and 117.8% and 103.9% and 101.5% and 122.4% | Thickness D3 (1h) (mice; 77 30 mg/kg, CFA day 3, 1 h, individual mice 6-10 and Average, 30 mg/kg): 5 and 4.17 and 4.03 and 4 and 4.7 | Thickness CFA D3 % (mice; 77 30 mg/kg, CFA day 3 before that day's dose, % of CFA D1 thickness, individual mice 6-10 and Average, 30 mg/kg): 131.9% and 121.8% and 110.3% and 105.1% and 128.9% | Thickness CFA D3 (mice; 77 30 mg/kg, CFA day 3 before that day's dose, individual mice 6-10 and Average, 30 mg/kg): 5.13 and 4.31 and 4.28 and 4.14 and 4.95 | Thickness D4 (1h) % (mice; 77 30 mg/kg, CFA day 4, 1 h, % of CFA D1 thickness, individual mice 6-10 and Average, 30 mg/kg): 113.1% and 107.3% and 103.1% and 103.6% and 104.7% | Thickness D4 (1h) (mice; 77 30 mg/kg, CFA day 4, 1 h, individual mice 6-10 and Average, 30 mg/kg): 4.4 and 3.8 and 4 and 4.08 and 4.02 | Thickness CFA D4 % (mice; 77 30 mg/kg, CFA day 4 before that day's dose, % of CFA D1 thickness, individual mice 6-10 and Average, 30 mg/kg): 118.3% and 110.2% and 107.5% and 106.1% and 109.1% | Thickness CFA D4 (mice; 77 30 mg/kg, CFA day 4 before that day's dose, individual mice 6-10 and Average, 30 mg/kg): 4.6 and 3.9 and 4.17 and 4.18 and 4.19 | Thickness CFA D5 % (mice; 77 30 mg/kg, CFA day 5, % of CFA D1 thickness, individual mice 6-10 and Average, 30 mg/kg): 100.0% and 107.3% and 97.4% and 90.6% and 104.2% | Thickness CFA D5 (mice; 77 30 mg/kg, CFA day 5, individual mice 6-10 and Average, 30 mg/kg): 3.89 and 3.8 and 3.78 and 3.57 and 4 | Thickness CFA D7 % (mice; 77 30 mg/kg, CFA day 7, % of CFA D1 thickness, individual mice 6-10 and Average, 30 mg/kg): 102.8% and 96.0% and 90.2% and 86.0% and 106.8% | Thickness CFA D7 (mice; 77 30 mg/kg, CFA day 7, individual mice 6-10 and Average, 30 mg/kg): 4 and 3.4 and 3.5 and 3.39 and 4.1
